Results published in ChEMBL document CHEMBL1201862, “PubChem BioAssay data set” (2004).
Calls of active or inactive are those of the source.

Legend:
[1] = A549 cell cytotoxicity, dose response, cytotoxicity control, plate reader, cherry-pick, antagonist series (AID 743412); assay type: functional, cell-based
[2] = system: BJ; test: BJ-TERT-LT-ST fibroblast viability loss – cell-based, RAS-independent, luminescence, dose response (AID 1935); assay type: functional; conditions: Homo sapiens;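 note: BJ fibroblasts immortalized with TERT plus LT and ST oncogenes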
[3] = molecular target: Paired box protein Pax-8 (Homo sapiens, UniProt Q06710); test: PAX8 transcriptional activity inhibition in RMG-I – RMG-I cells, luciferase, cherry-pick, dose response (AID 687027); assay type: functional, cell-based;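 note: luciferase reporter driven by Pax8 target thyroperoxidase promoter measured by SteadyGlo luminescence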
[4] = system: BJ; test: BJ-TERT fibroblast viability loss – cell-based, RAS-independent, luminescence, dose response (AID 1933); assay type: functional; conditions: Homo sapiens
[5] = system: BJ; test: cells; assay type: functional, cell-based; conditions: Homo sapiens
[6] = molecular target: T1, Insulin-degrading enzyme (Homo sapiens, UniProt P14735); test: cellular IDE activation of Abeta substrate cleavage – fluorescence polarization, HEK cells, dose response (AID 588439); assay type: functional, cell-based
T1 sequence (P14735 whole entry): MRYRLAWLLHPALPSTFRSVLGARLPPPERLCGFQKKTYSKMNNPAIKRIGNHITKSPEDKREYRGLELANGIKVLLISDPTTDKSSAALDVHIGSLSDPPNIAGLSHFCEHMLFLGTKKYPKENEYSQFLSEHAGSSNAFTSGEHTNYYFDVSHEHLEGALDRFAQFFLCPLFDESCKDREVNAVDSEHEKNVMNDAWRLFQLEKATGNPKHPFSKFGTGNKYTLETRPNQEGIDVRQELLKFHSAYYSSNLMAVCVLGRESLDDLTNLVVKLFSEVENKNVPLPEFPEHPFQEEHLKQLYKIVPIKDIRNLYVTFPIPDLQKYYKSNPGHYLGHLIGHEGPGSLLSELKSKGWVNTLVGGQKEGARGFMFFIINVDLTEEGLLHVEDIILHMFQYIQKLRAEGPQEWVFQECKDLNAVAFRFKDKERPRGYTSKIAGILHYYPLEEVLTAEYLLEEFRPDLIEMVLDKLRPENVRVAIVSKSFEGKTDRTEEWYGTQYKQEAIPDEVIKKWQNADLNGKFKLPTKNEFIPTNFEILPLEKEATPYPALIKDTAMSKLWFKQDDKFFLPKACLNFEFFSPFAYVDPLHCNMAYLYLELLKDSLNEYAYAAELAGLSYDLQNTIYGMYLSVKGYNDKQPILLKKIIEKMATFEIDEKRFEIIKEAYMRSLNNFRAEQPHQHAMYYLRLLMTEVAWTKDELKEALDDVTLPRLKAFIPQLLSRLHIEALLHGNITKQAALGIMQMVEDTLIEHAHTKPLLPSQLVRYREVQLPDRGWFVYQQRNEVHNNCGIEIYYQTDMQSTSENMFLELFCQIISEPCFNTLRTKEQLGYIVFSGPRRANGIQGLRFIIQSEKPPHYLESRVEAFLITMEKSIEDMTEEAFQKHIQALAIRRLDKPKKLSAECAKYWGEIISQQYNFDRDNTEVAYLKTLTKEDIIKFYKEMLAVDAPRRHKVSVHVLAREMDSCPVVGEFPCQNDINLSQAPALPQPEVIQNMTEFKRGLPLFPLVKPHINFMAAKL

[7] = viability loss in HEK293 cells – cell-based, plate reader, cherry-picked samples, cytotoxicity control, dose response (AID 743446); assay type: functional
[8] = Luminescence Cell-Based Dose Confirmation HTS to Identify Inhibitors of Platelet Dense Granule Release. [Related pubchem assays: 1663 (Primary HTS), 1678 (Summary of Project)]; assay type: functional
[9] = blockade of melanocortin 4 receptor signaling – cell-based, plate reader, cherry pick, counter-screen for LGR2 antagonist project, dose response (AID 743444); assay type: functional;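 note: transfected HEK 293 cells stimulated with alpha-MSH peptide; potency of inhibitors of the alpha-MSH evoked signal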
[10] = THP-1 cell cytotoxicity, dose response, cytotoxicity control for non-replicating M. tuberculosis project (AID 489025); assay type: functional
[11] = general cell-killing toxicity readout – plate reader, dry powder samples, cytotoxicity control for PAX8 inhibitor project, dose response (AID 743021); assay type: functional, cell-based
[12] = NIH-3T3 fibroblast cytotoxicity, dose response, cytotoxicity control, cell-based, fluorescence, Alamar Blue, secondary assay (AID 2327); assay type: functional;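 note: NIH-3T3 mouse fibroblasts cultured with fluconazole at 8 µg/mL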
[13] = molecular target: T1, Insulin-degrading enzyme; test: recombinant IDE activation, cell-free – biochemical, fluorescence polarization, counter-screen for IDE activator project, dose response (AID 588681)
[14] = molecular target: Luciferin 4-monooxygenase (Photinus pyralis, UniProt P08659); test: inhibition of purified Photinus pyralis luciferase – biochemical, luminescence, dose response (AID 1891)
[15] = blockers of bursicon-stimulated LGR2 cAMP reporter – cell-based, HEK293, CRE-luciferase reporter, cherry pick, set 2, dose response (AID 743343); assay type: functional;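 note: transfected cells were stimulated with diluted bursicon conditioned medium after compound addition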
[16] = DRD fibroblast viability loss – cell-based, non-viral oncogenic, luminescence, dose response (AID 1934); assay type: functional; conditions: Homo sapiens
[17] = HepG2 cell cytotoxicity, dose response, cytotoxicity control for non-replicating M. tuberculosis project (AID 489018); assay type: functional; conditions: Mycobacterium tuberculosis
[18] = toxicity toward HepG2 liver cells – cell-based, plate reader, cherry-pick, antagonist series, cytotoxicity control, dose response (AID 743416); assay type: functional
[19] = system: HEK293; test: optical interference in Abeta FP readout, dose response, artefact control for IDE activator project, biochemical, fluorescence polarization (AID 588442); assay type: functional, cell-based; conditions: Homo sapiens
[20] = molecular target: Heat shock protein HSP 90-alpha (Homo sapiens, UniProt P07900); assay type: functional, organism-based
[21] = fluconazole-exposed Candida albicans growth modulators – fluorescence, retest, confirmation (AID 2467); assay type: functional, cell-based
[22] = Vero E6 cell cytotoxicity, dose response, cytotoxicity control for non-replicating M. tuberculosis project, secondary assay (AID 492998); assay type: functional, VeroE6; conditions: Vero C1008
[23] = system: HEK293; test: membrane integrity loss in HEK cells – cell-based, fluorescence, cytotoxicity control for IDE activator project, dose response (AID 588440); assay type: functional; conditions: Homo sapiens;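 note: cytotoxicity by LDH release measuring loss of membrane integrity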
[24] = system: Vero; test: mammalian cell viability reduction – secondary assay, cytotoxicity control for West Nile virus antiviral project, dose response (AID 1650); assay type: functional; conditions: Chlorocebus sabaeus
[25] = viability loss in THP-1 monocytes – THP-1 cells, cytotoxicity control for Vif-APOBEC3G degradation inhibitor project, dose response (AID 1117359); assay type: functional; conditions: THP-1
[26] = Trypanosoma cruzi growth suppression in host cells – NIH3T3 host cells, beta-gal luminescence, confirmation (AID 2044); assay type: functional, cell-based;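 note: intracellular parasites grown in NIH/3T3 mouse fibroblasts as host cells; luminescent beta-galactosidase reporter signal from transgenic T. cruzi replicating inside host cells; inhibitors lower the luminescence signal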
[27] = NIH3T3 cell viability loss – ATP luminescence, mouse fibroblasts, counter-screen, dose response (AID 2010); assay type: functional, cell-based;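 note: cells exposed to compound for about 90 hours before reading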
[28] = cells
[29] = molecular target: T2, Fructose-bisphosphate aldolase (Mycobacterium tuberculosis, UniProt P9WQA3); test: Fluorescence-based biochemical high throughput dose response assay for inhibitors of the fructose-bisphosphate aldolase (FBA) of M. tuberculosis.; assay type: functional
T2 sequence (P9WQA3 whole entry): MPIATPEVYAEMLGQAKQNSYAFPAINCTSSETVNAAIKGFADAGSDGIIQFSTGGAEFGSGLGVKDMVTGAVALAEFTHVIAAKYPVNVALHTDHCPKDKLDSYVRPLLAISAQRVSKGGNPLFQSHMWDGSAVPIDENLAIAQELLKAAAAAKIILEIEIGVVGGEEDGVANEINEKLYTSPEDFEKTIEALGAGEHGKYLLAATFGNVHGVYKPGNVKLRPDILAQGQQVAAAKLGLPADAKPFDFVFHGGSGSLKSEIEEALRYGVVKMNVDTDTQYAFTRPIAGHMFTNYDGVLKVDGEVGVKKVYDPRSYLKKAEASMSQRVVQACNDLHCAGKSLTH

[30] = molecular target: T3, DNA repair protein RAD52 homolog (Homo sapiens, UniProt P43351); assay type: functional, biochemical
T3 sequence (P43351 whole entry): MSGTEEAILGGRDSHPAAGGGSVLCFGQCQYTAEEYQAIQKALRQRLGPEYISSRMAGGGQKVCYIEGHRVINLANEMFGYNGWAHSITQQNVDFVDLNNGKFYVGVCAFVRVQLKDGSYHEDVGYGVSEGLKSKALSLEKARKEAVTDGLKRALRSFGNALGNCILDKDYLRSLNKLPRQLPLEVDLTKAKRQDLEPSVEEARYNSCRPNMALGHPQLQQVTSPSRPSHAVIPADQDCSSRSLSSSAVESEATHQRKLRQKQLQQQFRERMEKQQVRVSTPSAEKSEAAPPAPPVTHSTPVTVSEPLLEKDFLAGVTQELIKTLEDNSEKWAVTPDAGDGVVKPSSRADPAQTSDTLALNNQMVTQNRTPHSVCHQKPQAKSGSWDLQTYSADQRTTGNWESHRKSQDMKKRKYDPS

[31] = molecular target: T4, DNA repair and recombination protein RAD54-like (Homo sapiens, UniProt Q92698); test: RAD54 Holliday junction migration blockers – biochemical, fluorescence, cherry-picked samples, dose series, confirmation (AID 651657); assay type: functional
T4 sequence (Q92698 whole entry): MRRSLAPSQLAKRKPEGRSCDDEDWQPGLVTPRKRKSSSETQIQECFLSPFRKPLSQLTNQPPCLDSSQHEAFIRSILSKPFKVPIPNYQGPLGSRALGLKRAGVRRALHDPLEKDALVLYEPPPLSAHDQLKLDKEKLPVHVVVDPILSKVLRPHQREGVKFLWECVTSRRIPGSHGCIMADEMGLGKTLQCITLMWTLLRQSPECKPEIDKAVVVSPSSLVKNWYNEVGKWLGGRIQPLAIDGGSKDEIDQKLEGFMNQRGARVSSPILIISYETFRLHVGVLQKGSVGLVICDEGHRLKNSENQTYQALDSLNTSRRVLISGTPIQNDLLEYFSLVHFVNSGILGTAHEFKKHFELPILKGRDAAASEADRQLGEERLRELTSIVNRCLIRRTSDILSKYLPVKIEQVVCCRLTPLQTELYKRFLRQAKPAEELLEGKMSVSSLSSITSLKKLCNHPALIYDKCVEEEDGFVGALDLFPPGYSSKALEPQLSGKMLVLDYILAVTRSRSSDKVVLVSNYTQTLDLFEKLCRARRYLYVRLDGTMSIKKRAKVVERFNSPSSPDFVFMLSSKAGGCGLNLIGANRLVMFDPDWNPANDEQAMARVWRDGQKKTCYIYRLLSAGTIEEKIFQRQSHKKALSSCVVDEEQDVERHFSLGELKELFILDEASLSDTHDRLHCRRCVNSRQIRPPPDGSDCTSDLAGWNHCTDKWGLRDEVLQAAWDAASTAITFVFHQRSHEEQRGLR

Luciferin 4-monooxygenase, sequence (P08659 whole entry): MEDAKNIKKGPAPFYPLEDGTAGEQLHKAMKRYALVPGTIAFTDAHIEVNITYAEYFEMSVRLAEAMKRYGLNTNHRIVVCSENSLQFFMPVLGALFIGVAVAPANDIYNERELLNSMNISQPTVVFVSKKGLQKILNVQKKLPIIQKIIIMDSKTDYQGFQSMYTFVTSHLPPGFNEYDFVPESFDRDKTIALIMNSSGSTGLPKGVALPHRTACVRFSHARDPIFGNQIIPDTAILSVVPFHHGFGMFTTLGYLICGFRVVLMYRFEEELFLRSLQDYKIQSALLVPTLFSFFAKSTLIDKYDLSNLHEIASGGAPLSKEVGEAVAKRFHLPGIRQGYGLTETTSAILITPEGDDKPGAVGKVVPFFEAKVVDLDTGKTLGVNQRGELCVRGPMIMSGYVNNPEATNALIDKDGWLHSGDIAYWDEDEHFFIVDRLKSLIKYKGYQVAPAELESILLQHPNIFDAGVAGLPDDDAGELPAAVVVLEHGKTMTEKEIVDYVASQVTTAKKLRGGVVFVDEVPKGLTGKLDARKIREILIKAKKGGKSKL
Paired box protein Pax-8, sequence (Q06710 whole entry): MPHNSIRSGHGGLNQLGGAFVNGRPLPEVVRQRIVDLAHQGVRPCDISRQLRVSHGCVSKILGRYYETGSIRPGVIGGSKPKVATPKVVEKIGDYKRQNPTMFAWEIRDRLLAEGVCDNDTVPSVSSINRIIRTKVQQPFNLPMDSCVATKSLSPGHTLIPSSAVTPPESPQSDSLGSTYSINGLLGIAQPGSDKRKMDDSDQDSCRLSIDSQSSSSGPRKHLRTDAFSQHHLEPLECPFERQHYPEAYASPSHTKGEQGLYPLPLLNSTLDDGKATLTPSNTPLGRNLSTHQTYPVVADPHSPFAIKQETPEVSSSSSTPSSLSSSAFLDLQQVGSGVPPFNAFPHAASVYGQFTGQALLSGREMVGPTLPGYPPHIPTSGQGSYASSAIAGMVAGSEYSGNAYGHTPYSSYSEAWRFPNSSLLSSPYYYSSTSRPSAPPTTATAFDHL

For COc1ccc(NC(=O)c2cc([N+](=O)[O-])ccc2O)cc1, the AC50 [1] was 11.9 µM (active), the EC50 [2] was > 150 µM (inconclusive) and the AC50 [3] was 5.39 µM (active). The EC50 [4] was 9.48 µM (active), the EC50 [5] was 5.17 µM (active) and the EC50 [6] was > 54.7 µM (inactive). For the same molecule, the AC50 [7] was 6.28 µM (active), the EC50 [8] was 2.15 µM (active) and the AC50 [9] was 739 nM (active). The CC50 [10] was 26.5 µM (active), the AC50 [11] was 12.4 µM (active) and the EC50 [12] was 11.6 µM (active). For the same molecule, the EC50 [13] was > 54.7 µM (inactive), the EC50 [14] was 129 nM (active) and the AC50 [15] was 784 nM (active). For the same molecule, the EC50 [16] was 6.2 µM (active), the CC50 [17] was > 20 µM (active) and the AC50 [18] was 9.22 µM (active). For the same molecule, the EC50 [19] was > 54.7 µM (inactive), the AC50 [20] was 3.37 µM (active) and the EC50 [21] was 1.27 µM (active). For the same molecule, the CC50 [22] was > 20 µM (active) and the IC50 [23] was > 89.1 µM (inactive).
For COC1CC(OC2CCC3(C)C(CCC4C3CCC3(C)C(C5=CC(=O)OC5)C(OC(C)=O)CC43O)C2)OC(C)C1OC1OC(COC2OC(CO)C(O)C(O)C2O)C(O)C(O)C1O (stereo not given), the CC50 [24] was 4.14 µM (active).
For CNc1ccc(Br)cc(C(=O)/C=C/c2cccc(OC)c2OC)c1=O, the CC50 [25] was > 40 µM (active).
With COc1ccc(CN2CCCC(N3CCN(c4cccc(Cl)c4)CC3)C2)cc1OC (stereo not given) the EC50 [26] was < 100 nM (active), the EC50 [27] was > 60 µM (not active) and the EC50 [28] was 38 nM (active).
With Cc1cc2c(SCc3ccccc3Cl)nc(N)nc2nc1C the IC50 [29] was 0.833 µM (active).
With COc1ccc(CCNC(=O)c2cc3c(=O)n4ccccc4nc3n(CCCN3CCOCC3)c2=N)cc1OC the AC50 [30] was 11.5 µM (active) and the AC50 [31] was 31 µM (active).
In the case of COC(=O)CN(c1ccc2c(c1)OCCO2)S(=O)(=O)c1ccccc1, the IC50 [29] is reported as > 9.99 µM (inactive).
With CC(C)N1C(=O)/C(=C/c2nc3ccccc3c(=O)n2-c2ccccc2)c2ccccc21 the EC50 [26] was 997 nM (active) and the CC50 [24] was 27.3 µM (active).
In the case of COc1ccc(-c2cc(-c3ccccc3)c(C#N)c(SCC(=O)O)n2)cc1, the IC50 [29] is reported as 1.35 µM (active).
